Experimental data taken from US8486931B2, “Substituted oxindole compounds” (Abbott GmbH & Co. KG, priority 2007, dated 2013).
pKi: −log10 of the molar value.

target: T1, human vasopressin V1b receptor (Homo sapiens, UniProt P47901); test: Vasopressin V1b receptor binding assay; conditions: membranes from CHO-K1 cells with stably expressed human V1b receptors, 1.5 nM 3H-AVP displacement; with more than one stereogenic center: the diastereomer with stronger affinity
T1 construct: expressed in transfected cells; host or cells: CHO-K1 (cell line hV1b-3H2_CHO), membrane preparation
T1 sequence (P47901 1-424): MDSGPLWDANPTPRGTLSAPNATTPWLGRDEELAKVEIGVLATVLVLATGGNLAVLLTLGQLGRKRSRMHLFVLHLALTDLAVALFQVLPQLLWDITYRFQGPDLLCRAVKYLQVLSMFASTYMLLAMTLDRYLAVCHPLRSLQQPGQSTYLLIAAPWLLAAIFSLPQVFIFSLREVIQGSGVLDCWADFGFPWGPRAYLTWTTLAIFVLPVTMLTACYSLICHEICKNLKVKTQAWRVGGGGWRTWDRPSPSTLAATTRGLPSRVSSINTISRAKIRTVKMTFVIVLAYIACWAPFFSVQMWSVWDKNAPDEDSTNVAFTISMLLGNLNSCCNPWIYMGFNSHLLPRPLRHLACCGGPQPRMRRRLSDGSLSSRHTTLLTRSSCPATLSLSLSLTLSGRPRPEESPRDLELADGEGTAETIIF
Method in brief: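 Membranes bearing human V1b receptor incubated 60 min at room temperature in 50 mM Tris, 10 mM MgCl2, 0.1% BSA, pH 7.4, 2% DMSO, triplicate.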

**Q.** CCOc1ccc(OC)cc1C1(N2CCN(c3ccncc3)CC2)C(=O)N(S(=O)(=O)c2cccc3cccnc23)c2ccc(C#N)cc21 (racemic) [Example 13, (±)-5-Cyano-3-(2-ethoxy-5-methoxyphenyl)-3-(4-pyridin-4-yl-piperazin-1-yl)-1-(quinoline-8-sulfonyl)-2,3-dihydro-1H-indol-2-one] was tested. Which pKi did it give?
**A.** The pKi was greater than 8.00.

**Q.** How did the pKi turn out when CCOc1ccc(OC)cc1C1(N2CC3CN(c4ccncc4)CC3C2)C(=O)N(S(=O)(=O)c2ccc(OC)c3cccnc23)c2ccc(C#N)cc21 (racemic) [Example 74, (±)-5-Cyano-3-(2-ethoxy-5-methoxyphenyl)-1-(5-methoxyquinoline-8-sulfonyl)-3-(5-pyridin-4-ylhexahydropyrrolo[3,4-c]pyrrol-2-yl)-2,3-dihydro-1H-indol-2-one] was run?
**A.** The pKi was 7.30 to 8.00.

**Q.** With CCOc1ccc(OC)cc1C1(N2CCN(c3ccnc(C)c3)CC2)C(=O)N(S(=O)(=O)c2ccc(OC)cn2)c2ccc(C#N)cc21 (racemic) [Example 35, (±)-5-Cyano-3-(2-ethoxy-5-methoxyphenyl)-1-(5-methoxypyridine-2-sulfonyl)-3-[4-(2-methylpyridin-4-yl)piperazin-1-yl]-2,3-dihydro-1H-indol-2-one] as the compound, how does the pKi read?
**A.** Its pKi is greater than 8.00.

**Q.** How did the pKi turn out when CCOc1ccc(OC)cc1C1(N2CCN(C3CCNCC3)CC2)C(=O)N(S(=O)(=O)c2ccc(OC)cn2)c2ccc(C#N)cc21 (single isomer, unassigned; (+)) [Example 140, (+)-5-Cyano-3-(2-ethoxy-5-methoxy-phenyl)-1-(5-methoxy-pyridine-2-sulfonyl)-3-(4-piperidin-4-yl-piperazin-1-yl)-2,3-dihydro-1H-indol-2-one] was run?
**A.** The pKi was greater than 8.00.

**Q.** CCOc1ccccc1C1(N2CCCN(c3ccncc3)CC2)C(=O)N(S(=O)(=O)c2ccc(OC)cn2)c2ccc(C#N)cc21 (racemic) [Example 78, (±)-5-Cyano-3-(2-ethoxyphenyl)-1-(5-methoxypyridine-2-sulfonyl)-3-(4-pyridin-4-yl-[1,4]diazepan-1-yl)-2,3-dihydro-1H-indol-2-one] was tested. Which pKi did it give?
**A.** Its pKi is 7.30 to 8.00.

**Q.** CCOc1ccccc1C1(N2CCN(c3ccncc3)CC2)C(=O)N(S(=O)(=O)c2ccc(F)c3cccnc23)c2ccc(C#N)cc21 (racemic) [Example 26, (±)-5-Cyano-3-(2-ethoxyphenyl)-1-(5-fluoroquinoline-8-sulfonyl)-3-(4-pyridin-4-yl-piperazin-1-yl)-2,3-dihydro-1H-indol-2-one] was tested. Which pKi did it give?
**A.** Its pKi is 7.30 to 8.00.

**Q.** CCOc1ccccc1C1(N2CCN(c3ccncc3)CC2)C(=O)N(S(=O)(=O)c2cccc3cccnc23)c2ccc(C#N)cc21 (single isomer, unassigned; (+)) [Example 60, (+)-5-Cyano-3-(2-ethoxyphenyl)-3-(4-pyridin-4-ylpiperazin-1-yl)-1-(quinolin-8-sulfonyl)-2,3-dihydro-1H-indol-2-one] was tested. Which pKi did it give?
**A.** The pKi was greater than 8.00.

**Q.** CCOc1ccc(OC)cc1C1(N2CCCN(c3ccnc(C(C)C)c3)CC2)C(=O)N(S(=O)(=O)c2ccc(OC)cn2)c2ccc(C#N)cc21 (racemic) [Example 154, (±)-5-Cyano-3-(2-ethoxy-5-methoxy-phenyl)-3-[4-(2-isopropyl-pyridin-4-yl)-[1,4]diazepan-1-yl]-1-(5-methoxy-pyridine-2-sulfonyl)-2,3-dihydro-1H-indol-2-one] was tested. Which pKi did it give?
**A.** Its pKi is greater than 8.00.

**Q.** How did the pKi turn out when CCOc1ccc(OC)cc1C1(N2CCC(N3CCN(CC)CC3)CC2)C(=O)N(S(=O)(=O)c2ccc(OC)cn2)c2ccc(C#N)cc21 (racemic) [Example 145, (±)-5-Cyano-3-(2-ethoxy-5-methoxy-phenyl)-3-[4-(4-ethyl-piperazin-1-yl)-piperidin-1-yl]-1-(5-methoxy-pyridine-2-sulfonyl)-2,3-dihydro-1H-indol-2-one] was run?
**A.** The pKi was 7.30 to 8.00.

**Q.** With CCOc1ccc(OC)cc1C1(N2CCN(c3ccnc(C)c3)CC2)C(=O)N(S(=O)(=O)c2cccc3c(C)ccnc23)c2ccc(C#N)cc21 (racemic) [Example 18, (±)-5-Cyano-3-(2-ethoxy-5-methoxyphenyl)-3-[4-(2-methylpyridin-4-yl)piperazin-1-yl]-1-(4-methylquinoline-8-sulfonyl)-2,3-dihydro-1H-indol-2-one] as the compound, how does the pKi read?
**A.** The pKi was greater than 8.00.

**Q.** How did the pKi turn out when CCOc1cc(F)ccc1C1(N2CCN(c3ccncc3)CC2)C(=O)N(S(=O)(=O)c2cccc3cccnc23)c2ccc(C#N)cc21 (racemic) [Example 46, (±)-5-Cyano-3-(2-ethoxy-4-fluorophenyl)-3-(4-pyridin-4-ylpiperazin-1-yl)-1-(quinoline-8-sulfonyl)-2,3-dihydro-1H-indol-2-one] was run?
**A.** Its pKi is 7.30 to 8.00.

**Q.** With CCOc1nc(Cl)ccc1C1(N2CCN(C3CCNCC3)CC2)C(=O)N(S(=O)(=O)c2ccc(OC)cn2)c2ccc(C#N)cc21 (racemic) [Example 176, (±)-5-Cyano-3-(6-chloro-2-ethoxy-pyridin-3-yl)-1-(5-methoxy-pyridine-2-sulfonyl-3-(4-piperidin-4-yl-piperazin-1-yl)-2,3-dihydro-1H-indol-2-one] as the compound, how does the pKi read?
**A.** The pKi was greater than 8.00.

**Q.** How did the pKi turn out when CCOc1ccc(OC)cc1C1(N2CCN(c3ccncc3)CC2)C(=O)N(S(=O)(=O)c2ccc(C)cn2)c2ccc(C#N)cc21 (racemic) [Example 47, (±)-5-Cyano-3-(2-ethoxy-5-methoxyphenyl)-1-(5-methylpyridine-2-sulfonyl)-3-(4-pyridin-4-ylpiperazin-1-yl)-2,3-dihydro-1H-indol-2-one] was run?
**A.** The pKi was greater than 8.00.

**Q.** CCOc1ccccc1C1(N2CCN(c3ccncc3)CC2)C(=O)N(S(=O)(=O)c2ccc(C)c3cccnc23)c2ccc(C#N)cc21 (racemic) [Example 88, (±)-5-Cyano-3-(2-ethoxyphenyl)-1-(5-methylquinoline-8-sulfonyl)-3-(4-pyridin-4-yl-piperazin-1-yl)-2,3-dihydro-1H-indol-2-one] was tested. Which pKi did it give?
**A.** The pKi was 7.30 to 8.00.

**Q.** How did the pKi turn out when CCOc1c(OC)cccc1C1(N2CCN(c3ccnc(C)c3)CC2)C(=O)N(S(=O)(=O)c2ccc(OC)cn2)c2ccc(C#N)cc21 (racemic) [Example 179, (±)-5-Cyano-3-(2-ethoxy-3-methoxy-phenyl)-1-(5-methoxy-pyridine-2-sulfonyl)-3-[4-(2-methyl-pyridin-4-yl)-piperazin-1-yl]-2,3-dihydro-1H-indol-2-one] was run?
**A.** The pKi was greater than 8.00.

**Q.** CCOc1ccc(OC)cc1C1(N2CCN(c3ccncc3)CC2)C(=O)N(S(=O)(=O)c2ccc(OC)cn2)c2ccc(C#N)cc21 (racemic) [Example 82, (±)-5-Cyano-3-(2-ethoxy-5-methoxyphenyl)-1-(5-methoxypyridine-2-sulfonyl)-3-(4-pyridin-4-ylpiperazin-1-yl)-2,3-dihydro-1H-indol-2-one] was tested. Which pKi did it give?
**A.** Its pKi is greater than 8.00.

**Q.** How did the pKi turn out when CCOc1ccccc1C1(N2CCN(c3ccncc3)CC2)C(=O)N(S(=O)(=O)c2ccc(Cl)c3cccnc23)c2ccc(C#N)cc21 (racemic) [Example 12, (±)-5-Cyano-1-(5-chloroquinoline-8-sulfonyl)-3-(2-ethoxyphenyl)-3-(4-pyridin-4-yl-piperazin-1-yl)-2,3-dihydro-1H-indol-2-one] was run?
**A.** Its pKi is 7.30 to 8.00.

**Q.** With CCOc1cc(OC)ccc1C1(N2CCN(c3ccnc(C)c3)CC2)C(=O)N(S(=O)(=O)c2ccc(OC)cn2)c2ccc(C#N)cc21 (racemic) [Example 178, (±)-5-Cyano-3-(2-ethoxy-4-methoxy-phenyl)-1-(5-methoxy-pyridine-2-sulfonyl)-3-[4-(2-methyl-pyridin-4-yl)-piperazin-1-yl]-2,3-dihydro-1H-indol-2-one] as the compound, how does the pKi read?
**A.** The pKi was 7.30 to 8.00.

**Q.** How did the pKi turn out when CCOc1ccc(OC)cc1C1(N2CCN(c3ccnc(CC)c3)CC2)C(=O)N(S(=O)(=O)c2ccc(OC)c3cccnc23)c2ccc(C#N)cc21 (racemic) [Example 72, (±)-5-Cyano-3-(2-ethoxy-5-methoxyphenyl)-3-[4-(2-ethylpyridin-4-yl)piperazin-1-yl]-1-(5-methoxyquinoline-8-sulfonyl)-2,3-dihydro-1H-indol-2-one] was run?
**A.** Its pKi is 7.30 to 8.00.

**Q.** How did the pKi turn out when CCOc1ccc(OC)cc1C1(N2CCN(c3ccnc(C4CC4)c3)CC2)C(=O)N(S(=O)(=O)c2ccc(OC)c3cccnc23)c2ccc(C#N)cc21 (racemic) [Example 70, (±)-5-Cyano-3-[4-(2-cyclopropylpyridin-4-yl)piperazin-1-yl]-3-(2-ethoxy-5-methoxyphenyl)-1-(5-methoxyquinoline-8-sulfonyl)-2,3-dihydro-1H-indol-2-one] was run?
**A.** Its pKi is greater than 8.00.

**Q.** CCOc1nc(Cl)ccc1C1(N2CCN(c3ccnc(C)c3)CC2)C(=O)N(S(=O)(=O)c2ccc(OC)c3cccnc23)c2ccc(C#N)cc21 (racemic) [Example 85, (±)-5-Cyano-3-(6-chloro-2-ethoxypyridin-3-yl)-1-(5-methoxyquinoline-8-sulfonyl)-3-[4-(2-methylpyridin-4-yl)piperazin-1-yl]-2,3-dihydro-1H-indol-2-one] was tested. Which pKi did it give?
**A.** Its pKi is greater than 8.00.

**Q.** CCOc1ccccc1C1(N2CCN(c3ccncc3)CC2)C(=O)N(S(=O)(=O)c2ccc(C)cn2)c2ccc(C#N)cc21 (single isomer, unassigned; (+)) [Example 61, (+)-5-Cyano-3-(2-ethoxyphenyl)-1-(5-methylpyridine-2-sulfonyl)-3-(4-pyridin-4-yl-piperazin-1-yl)-2,3-dihydro-1H-indol-2-one] was tested. Which pKi did it give?
**A.** The pKi was greater than 8.00.

**Q.** With CCOc1ccc(OC)cc1C1(N2CCC(C3CCNCC3)CC2)C(=O)N(S(=O)(=O)c2ccc(OC)cn2)c2ccc(C#N)cc21 (racemic) [Example 181, (±)-5-Cyano-3-[4,4′]bipiperidinyl-1-yl-3-(2-ethoxy-5-methoxy-phenyl)-1-(5-methoxy-pyridine-2-sulfonyl)-2,3-dihydro-1H-indol-2-one] as the compound, how does the pKi read?
**A.** The pKi was greater than 8.00.
